# Reference: ChEMBL document CHEMBL5625175, “Quinazoline-based VEGFR-2 inhibitors as potential anti-angiogenic agents: A contemporary perspective of SAR and molecular docking studies” (Eur J Med Chem, 2023)
# pEC50, pIC50: −log10 of the molar value.
# What was measured:
# [1] = target: T1, Vascular endothelial growth factor receptor 1 (Homo sapiens, UniProt P17948); assay: Inhibition of VEGFR-1 (unknown origin) by HTRF method
# [2] = target: T1, Vascular endothelial growth factor receptor 1; assay: Inhibition of VEGFR-1 (unknown origin) at 10 uM relative to control
# [3] = target: T2, Vascular endothelial growth factor receptor 2 (Homo sapiens, UniProt P35968); assay: Inhibition of VEGFR-2 (unknown origin) by Kinase-Glo Max assay
# T2 sequence (P35968 whole entry): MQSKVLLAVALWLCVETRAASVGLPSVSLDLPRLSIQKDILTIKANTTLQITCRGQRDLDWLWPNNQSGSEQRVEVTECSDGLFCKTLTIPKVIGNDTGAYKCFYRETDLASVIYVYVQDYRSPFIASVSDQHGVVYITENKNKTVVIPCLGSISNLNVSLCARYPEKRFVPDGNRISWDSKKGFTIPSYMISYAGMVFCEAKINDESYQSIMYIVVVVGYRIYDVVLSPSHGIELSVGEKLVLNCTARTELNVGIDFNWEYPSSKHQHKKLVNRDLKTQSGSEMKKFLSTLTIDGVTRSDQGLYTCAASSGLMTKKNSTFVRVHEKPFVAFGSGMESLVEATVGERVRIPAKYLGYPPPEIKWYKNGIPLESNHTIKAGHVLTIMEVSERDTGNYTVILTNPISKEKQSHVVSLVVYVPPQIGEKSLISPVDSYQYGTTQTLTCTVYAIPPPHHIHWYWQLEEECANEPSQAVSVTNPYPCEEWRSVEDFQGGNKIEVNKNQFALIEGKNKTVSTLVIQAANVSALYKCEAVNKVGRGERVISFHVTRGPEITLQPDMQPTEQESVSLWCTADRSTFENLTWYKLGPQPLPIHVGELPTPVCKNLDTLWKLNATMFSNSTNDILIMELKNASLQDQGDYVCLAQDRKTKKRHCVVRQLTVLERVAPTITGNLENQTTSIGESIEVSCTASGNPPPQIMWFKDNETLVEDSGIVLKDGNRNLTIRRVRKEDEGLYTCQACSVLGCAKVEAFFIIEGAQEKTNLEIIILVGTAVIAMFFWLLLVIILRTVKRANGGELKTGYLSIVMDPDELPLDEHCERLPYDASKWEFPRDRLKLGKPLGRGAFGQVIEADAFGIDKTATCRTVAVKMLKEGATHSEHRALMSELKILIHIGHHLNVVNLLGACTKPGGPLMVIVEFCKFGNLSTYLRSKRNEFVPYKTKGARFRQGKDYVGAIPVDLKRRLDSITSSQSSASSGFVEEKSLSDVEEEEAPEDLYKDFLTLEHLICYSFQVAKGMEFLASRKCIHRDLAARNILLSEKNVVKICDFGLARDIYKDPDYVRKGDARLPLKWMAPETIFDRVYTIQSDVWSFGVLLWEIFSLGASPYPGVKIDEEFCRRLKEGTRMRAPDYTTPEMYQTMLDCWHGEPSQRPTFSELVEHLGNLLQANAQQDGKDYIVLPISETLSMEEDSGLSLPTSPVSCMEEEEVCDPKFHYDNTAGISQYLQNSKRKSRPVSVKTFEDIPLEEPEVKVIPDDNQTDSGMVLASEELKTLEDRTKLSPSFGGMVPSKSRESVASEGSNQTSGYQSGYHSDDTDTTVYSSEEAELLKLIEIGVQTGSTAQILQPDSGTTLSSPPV
# [4] = target: T3, Epidermal growth factor receptor (Homo sapiens, UniProt P00533); assay: Inhibition of EGFR (unknown origin) using TK as substrate incubated for 60 mins by HTRF method
# T3 sequence (P00533 whole entry): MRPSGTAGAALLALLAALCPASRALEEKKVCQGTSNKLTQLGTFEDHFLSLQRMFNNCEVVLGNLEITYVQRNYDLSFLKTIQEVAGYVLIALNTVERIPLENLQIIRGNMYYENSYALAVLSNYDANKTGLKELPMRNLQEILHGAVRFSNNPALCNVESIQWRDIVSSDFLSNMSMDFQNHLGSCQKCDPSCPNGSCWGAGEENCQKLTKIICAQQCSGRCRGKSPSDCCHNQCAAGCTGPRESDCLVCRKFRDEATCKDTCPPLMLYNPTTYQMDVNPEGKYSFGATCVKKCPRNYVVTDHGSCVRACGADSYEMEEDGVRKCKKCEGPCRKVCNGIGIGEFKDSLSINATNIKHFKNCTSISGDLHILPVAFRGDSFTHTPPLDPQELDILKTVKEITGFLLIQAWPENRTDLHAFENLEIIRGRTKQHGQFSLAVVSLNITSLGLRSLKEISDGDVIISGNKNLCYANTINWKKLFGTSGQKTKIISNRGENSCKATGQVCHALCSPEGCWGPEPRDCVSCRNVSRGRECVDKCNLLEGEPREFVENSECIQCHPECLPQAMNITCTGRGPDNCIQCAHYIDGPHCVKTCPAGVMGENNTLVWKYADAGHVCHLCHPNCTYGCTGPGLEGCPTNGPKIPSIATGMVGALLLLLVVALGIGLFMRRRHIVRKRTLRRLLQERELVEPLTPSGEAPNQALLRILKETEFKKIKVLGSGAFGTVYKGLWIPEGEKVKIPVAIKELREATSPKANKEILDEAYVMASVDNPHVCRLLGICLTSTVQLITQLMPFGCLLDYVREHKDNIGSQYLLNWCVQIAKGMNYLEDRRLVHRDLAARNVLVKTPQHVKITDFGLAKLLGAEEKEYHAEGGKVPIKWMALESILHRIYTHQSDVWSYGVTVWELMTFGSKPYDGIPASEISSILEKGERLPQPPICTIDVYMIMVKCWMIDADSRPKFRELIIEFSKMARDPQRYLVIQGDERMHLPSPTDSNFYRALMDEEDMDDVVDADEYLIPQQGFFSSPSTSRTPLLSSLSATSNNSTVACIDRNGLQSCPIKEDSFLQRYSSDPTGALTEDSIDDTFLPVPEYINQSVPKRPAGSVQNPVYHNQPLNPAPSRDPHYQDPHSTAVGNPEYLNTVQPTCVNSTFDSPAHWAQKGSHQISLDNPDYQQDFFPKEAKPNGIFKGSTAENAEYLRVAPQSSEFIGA
# A549 = assay: cells; conditions: Homo sapiens, A549, 48 h
# NCI-H460 = assay: cells; conditions: Homo sapiens, NCI-H460, 48 h
# Macrophage = assay: cells; conditions: Homo sapiens, 48 h
# HepG2 [5] = assay: Cytotoxicity against human HepG2 cells assessed as cell growth inhibition; assay type: functional, cell-based
# HCT-116 [6] = assay: Cytotoxicity against human HCT-116 cells assessed as cell growth inhibition; assay type: functional, cell-based
# WISH = assay: Cytotoxicity against human WISH cells assessed as cell growth inhibition; assay type: functional, cell-based
# [7] = target: T2, Vascular endothelial growth factor receptor 2
# HepG2 [8] = assay: Growth inhibition of human HepG2 cells incubated for 24 hrs by MTT assay; assay type: functional
# HCT-116 [9] = assay: Growth inhibition of human HCT-116 cells incubated for 24 hrs by MTT assay; assay type: functional
# MCF7 [10] = assay: Growth inhibition of human MCF7 cells incubated for 24 hrs by MTT assay; assay type: functional
# [11] = Half life in rat at 5 mg/kg, iv; assay type: ADME, organism-based; conditions: in vivo
# [12] = Oral bioavailability in rat at 2.5 mg/kg; assay type: ADME, organism-based; conditions: in vivo
# Calu-6 = assay: Antitumor activity against human Calu-6 cells xenografted in athymic mouse assessed as inhibition of tumor growth at 100 mg/kg, po administered once daily for 21 days relative to control; assay type: functional; set-up: scale not given: the % may be the effect or the level left; conditions: time 21 day
# HUVEC [13] = assay: cells; conditions: Homo sapiens
# HUVEC [14] = assay: cells; conditions: Homo sapiens; remark: listed apart in the source
# in vitro = conditions: human, HUVEC cells
# MCF7 [15] = assay: Antiproliferative activity against human MCF7 cells assessed as reduction in cell viability measured after 48 hrs by MTT assay; assay type: functional, cell-based; conditions: MCF7, 48 h
# HCT-116 [16] = assay: Antiproliferative activity against human HCT-116 cells assessed as reduction in cell viability measured after 48 hrs by MTT assay; assay type: functional, cell-based; conditions: HCT-116, 48 h
# [17] = target: Serine/threonine-protein kinase B-raf (Homo sapiens, UniProt P15056); assay: Inhibition of human recombinant B-Raf using […] as substrate incubated for 40 mins in presence of [gamma33P]ATP by scintillation counter based kinase assay
# [18] = target: Serine/threonine-protein kinase B-raf (Homo sapiens, UniProt P15056, V600E); assay: Inhibition of B-RAF V600E mutant (unknown origin) using […] as substrate incubated for 40 mins in presence of [gamma33P]ATP by scintillation counter based kinase assay
# [19] = target: RAF proto-oncogene serine/threonine-protein kinase (Homo sapiens, UniProt P04049); assay: Inhibition of human recombinant C-Raf using Glu-Tyr-Met-Pro-Met-Glu as substrate incubated for 60 mins by radiometric kinase assay
# RAF proto-oncogene serine/threonine-protein kinase, sequence (P04049 whole entry): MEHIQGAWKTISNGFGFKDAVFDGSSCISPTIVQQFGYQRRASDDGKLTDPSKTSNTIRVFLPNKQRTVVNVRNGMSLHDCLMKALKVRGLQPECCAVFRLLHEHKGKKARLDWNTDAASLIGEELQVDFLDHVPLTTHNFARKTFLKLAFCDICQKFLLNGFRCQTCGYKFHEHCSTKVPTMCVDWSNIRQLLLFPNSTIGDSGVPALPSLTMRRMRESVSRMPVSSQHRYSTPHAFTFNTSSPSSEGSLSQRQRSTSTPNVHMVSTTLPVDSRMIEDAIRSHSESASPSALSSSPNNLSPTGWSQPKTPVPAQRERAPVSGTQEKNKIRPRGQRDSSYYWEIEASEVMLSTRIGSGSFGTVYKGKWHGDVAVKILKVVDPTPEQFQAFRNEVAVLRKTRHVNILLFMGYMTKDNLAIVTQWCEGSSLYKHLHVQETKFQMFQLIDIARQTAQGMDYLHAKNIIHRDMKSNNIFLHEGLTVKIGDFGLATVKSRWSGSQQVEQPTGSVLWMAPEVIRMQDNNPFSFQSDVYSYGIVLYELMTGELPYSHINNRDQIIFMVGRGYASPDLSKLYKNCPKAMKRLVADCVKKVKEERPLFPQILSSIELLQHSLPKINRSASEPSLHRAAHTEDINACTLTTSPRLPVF
# [20] = target: T3, Epidermal growth factor receptor; assay: Inhibition of human recombinant EGFR using poly(Glu-Tyr) as substrate at 4:1 ratio in presence of ATP incubated for 60 mins by ELISA analysis
# [21] = target: T2, Vascular endothelial growth factor receptor 2; assay: Inhibition of VEGFR-2 (unknown origin) kinase activity using poly(Glu-Tyr) at 4:1 ratio as substrate in presence of ATP incubated for 60 mins by ELISA
# Angiopoietin-1 receptor = Angiopoietin-1 receptor (Homo sapiens, UniProt Q02763); assay: Inhibition of TIE-2 (unknown origin)
# Ephrin type-B receptor 4 = Ephrin type-B receptor 4 (Homo sapiens, UniProt P54760)
# [22] = target: Platelet-derived growth factor receptor beta (Homo sapiens, UniProt P09619); assay: Inhibition of human recombinant PDGFRbeta using poly (Glu, Tyr)4:1 as substrate measured after 60 mins by ELISA
# [23] = target: T2, Vascular endothelial growth factor receptor 2; assay: Inhibition of N-terminal polyhistidine human recombinant KDR using poly-(Glu4-Tyr) peptide as substrate incubated for 60 mins by DELFIA/time-resolved fluorometric analysis
# MHCC97H = assay: Antiproliferative activity against human MHCC97H cells assessed as reduction in cell viability incubated for 48 hrs by CCK-8 assay; assay type: functional, cell-based
# HUVEC [24] = assay: Antiproliferative activity against HUVEC cells assessed as reduction in cell viability incubated for 48 hrs by CCK-8 assay; assay type: functional, cell-based; conditions: Homo sapiens
# HEK293 = assay: Cytotoxicity against HEK293 cells assessed as cell growth inhibition measured after 48 hrs by CCK-8 assay; assay type: functional, cell-based; conditions: Homo sapiens, HEK293, 48 h
# L02 = assay: Cytotoxicity against human L02 cells assessed as cell growth inhibition measured after 48 hrs by CCK-8 assay; assay type: functional, cell-based; conditions: L02, 48 h
# B16 = assay: Antiproliferative activity against mouse B16 cells assessed as reduction in cell viability incubated for 48 hrs by MTT assay; assay type: functional, cell-based; conditions: B16, 48 h
# HCT-116 [25] = assay: cells; conditions: Homo sapiens, HCT-116, 48 h
# MCF7 [26] = assay: cells; conditions: Homo sapiens, MCF7, 48 h
# HepG2 [27] = assay: Antiproliferative activity against human HepG2 cells assessed as reduction in cell viability measured after 72 hrs by MTT assay; assay type: functional, cell-based; conditions: HepG2, 72 h
# MCF7 [28] = assay: Antiproliferative activity against human MCF7 cells assessed as reduction in cell viability measured after 72 hrs by MTT assay; assay type: functional, cell-based; conditions: MCF7, 72 h
# [29] = Intrinsic clearance in human hepatocytes at 0.5 uM measured after 10 mins by LC-MS/MS analysis; assay type: ADME, cell-based, Hepatocyte
# T1 sequence (P17948 whole entry): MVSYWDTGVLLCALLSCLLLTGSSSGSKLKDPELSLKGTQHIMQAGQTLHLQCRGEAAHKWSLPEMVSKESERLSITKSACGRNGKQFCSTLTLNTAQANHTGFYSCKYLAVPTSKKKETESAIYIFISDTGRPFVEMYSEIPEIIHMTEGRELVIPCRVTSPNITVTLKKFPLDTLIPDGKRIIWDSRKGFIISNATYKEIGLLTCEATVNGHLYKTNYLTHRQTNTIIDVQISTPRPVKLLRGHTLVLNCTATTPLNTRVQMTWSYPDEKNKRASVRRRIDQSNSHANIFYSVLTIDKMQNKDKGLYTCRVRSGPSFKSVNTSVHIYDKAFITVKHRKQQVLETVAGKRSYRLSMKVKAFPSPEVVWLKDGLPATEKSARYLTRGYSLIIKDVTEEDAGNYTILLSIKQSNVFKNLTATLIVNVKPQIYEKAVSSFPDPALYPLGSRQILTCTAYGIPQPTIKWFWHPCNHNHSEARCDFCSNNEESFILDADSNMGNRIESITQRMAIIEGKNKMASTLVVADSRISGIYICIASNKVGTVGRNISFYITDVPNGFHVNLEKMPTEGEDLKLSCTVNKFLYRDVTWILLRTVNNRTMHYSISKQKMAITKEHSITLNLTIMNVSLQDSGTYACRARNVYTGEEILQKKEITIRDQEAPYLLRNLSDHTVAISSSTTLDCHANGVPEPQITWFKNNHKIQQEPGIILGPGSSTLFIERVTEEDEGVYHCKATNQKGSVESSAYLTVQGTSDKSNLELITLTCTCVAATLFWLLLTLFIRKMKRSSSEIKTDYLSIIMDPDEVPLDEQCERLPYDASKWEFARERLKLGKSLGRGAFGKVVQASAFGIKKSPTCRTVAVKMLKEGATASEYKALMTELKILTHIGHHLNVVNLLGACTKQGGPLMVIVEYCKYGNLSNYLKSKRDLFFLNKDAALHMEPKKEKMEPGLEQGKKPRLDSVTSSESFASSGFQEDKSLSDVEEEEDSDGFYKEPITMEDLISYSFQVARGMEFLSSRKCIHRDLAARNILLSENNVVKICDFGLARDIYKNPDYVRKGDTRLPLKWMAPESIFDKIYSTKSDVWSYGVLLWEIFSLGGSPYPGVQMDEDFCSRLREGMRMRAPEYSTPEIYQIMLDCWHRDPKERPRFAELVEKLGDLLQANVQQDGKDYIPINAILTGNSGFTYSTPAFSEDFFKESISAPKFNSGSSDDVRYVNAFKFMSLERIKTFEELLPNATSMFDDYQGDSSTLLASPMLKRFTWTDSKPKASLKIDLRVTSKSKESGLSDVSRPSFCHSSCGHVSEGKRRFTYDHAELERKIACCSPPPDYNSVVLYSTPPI
smiles,measurement,setting,value
COc1cc2ncnc(Nc3ccc(-c4noc(Cc5cc6ccccc6[nH]5)n4)cc3)c2cc1OC,pIC50,[1],7.77
same,inhibition,[2],91%
CNC(=O)c1c(C)oc2cc(Oc3ncnc4cc(OC)c(OC)cc34)ccc12 [FRUQUINTINIB],pIC50,[3],7.46
CC(C)c1ccc(Nc2ncnc3cc(NC(=O)Nc4ccccc4)ccc23)cc1,pIC50,[4],6.32
COc1cc2nccc(Oc3ccc(NC(=O)Nc4cc(C)on4)c(Cl)c3)c2cc1OC [TIVOZANIB],pIC50,A549,6.21
same,pIC50,NCI-H460,6.41
same,pIC50,Macrophage,3.64
Cc1ccc2nc(-c3cccnc3)nc(NNC(=S)NC3CCCCC3)c2c1,pIC50,HepG2 [5],4.98
same,pIC50,HCT-116 [6],5.47
same,pIC50,WISH,4.30
O=C(Cn1c(=O)c2ccccc2n(Cc2ccccc2)c1=O)Nc1ccc(C(=O)N/N=C/c2ccc(Cl)cc2)cc1,pIC50,[7],6.92
same,GI50,HepG2 [8],9.16 µM
same,GI50,HCT-116 [9],5.69 µM
same,GI50,MCF7 [10],5.27 µM
COc1cc2/c(=N/c3ccc(Br)cc3F)nc[nH]c2cc1OCC1CCN(C)CC1 [VANDETANIB],half-life,[11],8.3 h
same,bioavailability,[12],> 50%
same,Activity,Calu-6,79%
same,pEC50,HUVEC [13],7.22
same,pEC50,HUVEC [14],8.00
same,pEC50,in vitro,< 5.52
O=C(CSc1nc2ccc(Cl)cc2c(=O)n1-c1ccccc1)N/N=C/c1cccc(F)c1,pIC50,MCF7 [15],5.02
same,pIC50,HCT-116 [16],5.80
NC(=O)CCn1cc(-c2ccc3ncnc(Nc4cc(O)c(F)cc4F)c3c2)nn1,pIC50,[17],7.24
same,pIC50,[18],7.29
same,pIC50,[19],6.00
same,pIC50,[20],7.14
same,pIC50,[21],8.15
O=C(Nc1ccc(-c2ccc3c(=O)[nH]cnc3c2)cc1)Nc1ccc(F)c(F)c1,pIC50,Angiopoietin-1 receptor,5.05
same,pIC50,Ephrin type-B receptor 4,5.49
same,pIC50,[22],4.01
O=[N+]([O-])c1ccc(COc2ncnc3ccc([N+](=O)[O-])cc23)cc1,pIC50,[23],8.33
COc1cc2nccc(Oc3ccc(NC(=O)C4(C(=O)Nc5ccc(F)cc5)CC4)cc3)c2cc1OC [CABOZANTINIB],IC50,MHCC97H,25 µg/mL
same,IC50,HUVEC [24],2.7 µg/mL
COc1cc2ncnc(Oc3ccc(NC(=O)C4(C(=O)Nc5ccc(F)cc5)CC4)cc3F)c2c2c1OCCO2,IC50,MHCC97H,58.6 µg/mL
same,IC50,HUVEC [24],3.7 µg/mL
same,IC50,HEK293,15.1 µg/mL
same,IC50,L02,12.6 µg/mL
COc1cc2ncnc(Oc3cccc(NC(=S)Nc4ccc(Cl)c(C(F)(F)F)c4)c3)c2cc1OC,pIC50,B16,5.21
same,pIC50,HCT-116 [25],5.04
same,pIC50,MCF7 [26],4.75
CCn1c(SCCCN2C(=O)c3ccccc3C2=O)nc2cc3ccccc3cc2c1=O,pIC50,HepG2 [27],4.59
same,pIC50,MCF7 [28],5.03
COc1cc2ncnc(Nc3cc(O)c(C)cc3F)c2cc1OC,CLH,[29],91.9 µL/min
